# Entries after “also recorded” stand apart in the source; their conditions may differ. Like-named read-outs stand apart in the source and are kept apart here. Where a SMILES comes first, the peptide text is derived from it.
# Tests used:
# adult male ICR mice [1] = conditions: mouse, in vivo
# adult male ICR mice [2] = conditions: mouse, in vivo; remark: listed apart in the source
# [3] = target: T1, CaV2.2 (N-type) calcium channels in rat superior cervical ganglion (SCG) neurons (Rattus norvegicus, UniProt Q02294); assay: cell-based; assay type: cell-based, rat (Wistar)
# T1 construct: SCG neurons are the most used native preparation to assess CaV2.2 (N-type) channel function; endogenous in cells
# [4] = read-out: inhibition of calcium current
# T1 sequence (Q02294 whole entry): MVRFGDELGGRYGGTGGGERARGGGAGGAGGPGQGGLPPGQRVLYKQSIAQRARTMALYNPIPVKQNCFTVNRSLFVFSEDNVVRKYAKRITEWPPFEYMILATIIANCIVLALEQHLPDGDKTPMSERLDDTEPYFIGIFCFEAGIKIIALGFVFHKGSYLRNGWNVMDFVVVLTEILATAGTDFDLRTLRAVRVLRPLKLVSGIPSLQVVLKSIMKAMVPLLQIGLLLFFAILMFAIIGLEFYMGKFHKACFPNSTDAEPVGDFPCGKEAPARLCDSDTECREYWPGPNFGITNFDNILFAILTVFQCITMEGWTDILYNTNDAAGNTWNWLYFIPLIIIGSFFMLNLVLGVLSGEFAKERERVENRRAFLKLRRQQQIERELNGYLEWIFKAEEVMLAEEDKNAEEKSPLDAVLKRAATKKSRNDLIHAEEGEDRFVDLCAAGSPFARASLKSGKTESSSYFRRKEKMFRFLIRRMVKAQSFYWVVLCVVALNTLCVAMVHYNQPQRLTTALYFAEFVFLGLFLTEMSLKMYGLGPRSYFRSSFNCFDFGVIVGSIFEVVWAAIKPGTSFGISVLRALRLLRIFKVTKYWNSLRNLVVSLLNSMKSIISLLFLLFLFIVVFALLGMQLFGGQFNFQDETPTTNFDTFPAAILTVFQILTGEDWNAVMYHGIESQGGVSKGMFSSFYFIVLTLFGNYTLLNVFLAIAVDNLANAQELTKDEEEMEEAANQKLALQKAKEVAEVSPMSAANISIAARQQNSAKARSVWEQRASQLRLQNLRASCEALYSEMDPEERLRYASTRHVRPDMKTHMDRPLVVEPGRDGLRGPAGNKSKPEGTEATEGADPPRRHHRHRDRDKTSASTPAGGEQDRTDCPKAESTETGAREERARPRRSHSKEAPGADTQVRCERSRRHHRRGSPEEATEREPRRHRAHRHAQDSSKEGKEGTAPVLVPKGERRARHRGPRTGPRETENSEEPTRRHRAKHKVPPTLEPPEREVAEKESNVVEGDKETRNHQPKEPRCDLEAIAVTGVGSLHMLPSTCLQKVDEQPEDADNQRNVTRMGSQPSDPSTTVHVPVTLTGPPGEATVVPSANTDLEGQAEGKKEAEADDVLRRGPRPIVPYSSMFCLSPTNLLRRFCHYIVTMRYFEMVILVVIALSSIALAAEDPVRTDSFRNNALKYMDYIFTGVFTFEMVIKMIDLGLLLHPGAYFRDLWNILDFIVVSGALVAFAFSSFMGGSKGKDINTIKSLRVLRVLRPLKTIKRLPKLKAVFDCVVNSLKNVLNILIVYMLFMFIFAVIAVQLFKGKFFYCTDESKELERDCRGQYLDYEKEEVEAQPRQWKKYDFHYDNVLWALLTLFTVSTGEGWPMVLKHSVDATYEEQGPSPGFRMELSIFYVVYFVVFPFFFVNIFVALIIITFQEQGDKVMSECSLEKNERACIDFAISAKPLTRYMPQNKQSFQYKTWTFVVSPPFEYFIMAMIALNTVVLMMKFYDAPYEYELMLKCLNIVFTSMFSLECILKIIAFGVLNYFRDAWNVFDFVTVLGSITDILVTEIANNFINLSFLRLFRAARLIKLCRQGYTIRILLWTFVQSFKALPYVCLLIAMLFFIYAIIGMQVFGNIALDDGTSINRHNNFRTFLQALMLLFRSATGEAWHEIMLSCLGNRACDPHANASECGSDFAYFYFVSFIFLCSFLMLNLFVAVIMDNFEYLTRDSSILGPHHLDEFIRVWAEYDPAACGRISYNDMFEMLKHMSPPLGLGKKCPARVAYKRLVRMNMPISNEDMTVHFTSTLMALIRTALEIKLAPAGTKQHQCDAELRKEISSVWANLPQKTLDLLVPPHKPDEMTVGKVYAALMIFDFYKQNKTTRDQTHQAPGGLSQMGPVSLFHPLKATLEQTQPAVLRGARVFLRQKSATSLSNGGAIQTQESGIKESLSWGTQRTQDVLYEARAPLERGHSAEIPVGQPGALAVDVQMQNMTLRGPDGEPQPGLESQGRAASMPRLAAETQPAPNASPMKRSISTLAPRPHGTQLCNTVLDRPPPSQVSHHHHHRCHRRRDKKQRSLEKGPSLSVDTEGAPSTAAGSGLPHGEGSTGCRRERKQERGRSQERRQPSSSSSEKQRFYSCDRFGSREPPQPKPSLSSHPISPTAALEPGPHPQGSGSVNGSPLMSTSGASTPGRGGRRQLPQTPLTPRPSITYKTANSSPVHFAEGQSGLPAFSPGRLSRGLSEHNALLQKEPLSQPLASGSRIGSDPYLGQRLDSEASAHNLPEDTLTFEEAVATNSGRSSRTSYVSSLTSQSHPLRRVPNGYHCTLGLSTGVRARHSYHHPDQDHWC
# T1 sequence (P54290 25-1091 partner): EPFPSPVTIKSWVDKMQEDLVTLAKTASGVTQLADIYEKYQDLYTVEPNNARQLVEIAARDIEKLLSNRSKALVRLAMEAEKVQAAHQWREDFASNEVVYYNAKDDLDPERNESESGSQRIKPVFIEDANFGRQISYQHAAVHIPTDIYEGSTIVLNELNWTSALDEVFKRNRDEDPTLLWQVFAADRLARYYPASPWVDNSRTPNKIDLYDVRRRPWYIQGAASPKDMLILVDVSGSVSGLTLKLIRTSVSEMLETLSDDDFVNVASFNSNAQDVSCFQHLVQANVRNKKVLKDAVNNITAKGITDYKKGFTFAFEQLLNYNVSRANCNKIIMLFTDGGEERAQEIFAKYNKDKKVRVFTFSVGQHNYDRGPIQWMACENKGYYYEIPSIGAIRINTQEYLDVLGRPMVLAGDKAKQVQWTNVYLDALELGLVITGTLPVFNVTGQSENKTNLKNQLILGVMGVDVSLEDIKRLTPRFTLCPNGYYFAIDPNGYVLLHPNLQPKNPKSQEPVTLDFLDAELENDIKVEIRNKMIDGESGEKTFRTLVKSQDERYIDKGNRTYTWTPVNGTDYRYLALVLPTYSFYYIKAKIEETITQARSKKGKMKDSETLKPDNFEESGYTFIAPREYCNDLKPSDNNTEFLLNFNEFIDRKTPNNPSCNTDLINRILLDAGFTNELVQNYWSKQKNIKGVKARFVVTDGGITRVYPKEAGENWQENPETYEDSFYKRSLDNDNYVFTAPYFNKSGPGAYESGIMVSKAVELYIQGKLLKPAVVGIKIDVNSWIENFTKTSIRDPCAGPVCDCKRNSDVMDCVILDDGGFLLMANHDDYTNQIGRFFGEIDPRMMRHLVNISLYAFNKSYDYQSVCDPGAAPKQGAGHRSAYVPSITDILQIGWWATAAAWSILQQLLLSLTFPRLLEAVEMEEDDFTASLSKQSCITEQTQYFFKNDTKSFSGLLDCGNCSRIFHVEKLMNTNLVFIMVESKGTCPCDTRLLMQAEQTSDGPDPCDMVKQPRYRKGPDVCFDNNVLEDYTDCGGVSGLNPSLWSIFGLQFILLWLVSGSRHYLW
# T1 sequence (P54287 whole entry partner): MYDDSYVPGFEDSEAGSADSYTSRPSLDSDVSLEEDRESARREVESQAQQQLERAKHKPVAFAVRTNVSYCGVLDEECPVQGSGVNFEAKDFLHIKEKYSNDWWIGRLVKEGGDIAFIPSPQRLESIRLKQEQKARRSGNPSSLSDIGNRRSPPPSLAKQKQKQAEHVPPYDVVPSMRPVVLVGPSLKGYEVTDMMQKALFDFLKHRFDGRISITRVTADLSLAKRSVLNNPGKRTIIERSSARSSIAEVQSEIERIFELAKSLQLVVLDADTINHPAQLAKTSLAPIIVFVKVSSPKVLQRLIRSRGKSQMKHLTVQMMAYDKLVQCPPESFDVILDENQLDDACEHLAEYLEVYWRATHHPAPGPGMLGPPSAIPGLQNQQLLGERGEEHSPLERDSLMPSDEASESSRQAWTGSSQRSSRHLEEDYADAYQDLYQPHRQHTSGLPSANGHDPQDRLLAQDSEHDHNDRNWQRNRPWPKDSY
smiles,measurement,setting,value
CSCC[C@H](NC(=O)[C@H](CC(C)C)NC(=O)[C@H](CCCNC(=N)N)NC(=O)[C@H](CO)NC(=O)CNC(=O)[C@H](CCCCN)NC(=O)[C@H](CO)NC(=O)[C@H](CC(C)C)NC(=O)[C@H](CS)NC(=O)[C@H](Cc1ccccc1)NC(=O)[C@H](CCC(=O)O)NC(=O)[C@H](CCCCN)NC(=O)[C@@H](NC(=O)[C@H](CO)NC(=O)[C@H](CS)NC(=O)[C@H](CO)NC(=O)[C@H](CO)NC(=O)[C@H](CS)NC(=O)[C@H](CO)NC(=O)[C@H](CCC(N)=O)NC(=O)CNC(=O)[C@H](CCCCN)NC(=O)[C@@H](N)CS)[C@@H](C)O)C(=O)N[C@@H](Cc1ccc(O)cc1)C(=O)N[C@@H](CC(=O)O)C(=O)N[C@@H](CS)C(=O)N[C@@H](CS)C(=O)N[C@H](C(=O)NCC(=O)N[C@@H](CO)C(=O)N[C@@H](CS)C(=O)N[C@@H](CS)C(=O)NCC(=O)N[C@H](C(=O)N[C@@H](CCCCN)C(=O)N[C@H](C(=O)N[C@@H](C)C(=O)NCC(=O)N[C@H](C(=O)N[C@H](C(=O)O)[C@@H](C)O)C(C)C)[C@@H](C)O)C(C)C)[C@@H](C)O [RsXXIVA] (H-CKGQSCSSCSTKEFCLSKGSRLMYDCCTGSCCGVKTAGVT-OH),analgesic effect in hot-plate test (in words) compared with control (PBS),adult male ICR mice [1],analgesic effect in acute thermal pain at 30 and 45 min post-injection; also recorded: significantly better than the control group (p < 0.05)
same,hind paw licking in formalin test (in words) compared with control group,adult male ICR mice [2],significantly reduced the hind paw licking during both phase 1 (Figure 6A) and phase 2 (Figure 6B)
same,CaV2.2 current before restoration (under toxin),[3],−442.9 ± 213.8 pA
same,CaV2.2 current restored after toxin washout,[3],−798.2 ± 313.4 pA
same,Hill coefficient of dose-response for CaV2.2 current inhibition,[3],0.94
same,affinity for CaV2.2 (in words),[3],low affinity for CaV2.2
same,reversibility of CaV2.2 current inhibition after washing,[3],partially reversed after washing; also recorded: partially reversible; also recorded: the inhibition of the CaV2.2 channel current occurred reversibly
same,time to inhibit CaV2.2 current,[3],less than 4 s
same,inhibition at 0.03 µM,[3]; [4],1.6 ± 0.1%
same,inhibition at 0.3 µM,[3]; [4],12 ± 0.5%
same,inhibition at 3 µM,[3]; [4],58.1 ± 2.6%
same,inhibition at 24 µM,[3]; [4],97.9 ± 0.5%
same,inhibition at 3 µM,[3]; read-out: percentage of inhibition compared to the block with 100 μM Cd2+,58.1%

# Reference: PMC3705398 (Marine Drugs, 2013)
